From patent US20130189764A1, “SELECTIVE GROWTH MEDIA” (Oxide Limited, priority 2000, published 2013)
Values after ≈ are worked out from the molar mass of the structure shown.

How the values were obtained:
Enterococcus faecium 220 = assay: MIC in DMSal medium (Example 17); assay type: cell-based; conditions: Enterococcus faecium, 220
E. coli 607 = assay: MIC in DMSal medium (Example 17); assay type: cell-based; conditions: Escherichia coli, 607
[1] = tested on: Salmonella typhimurium OCC 1870; assay: growth on nutrient agar streak plates, pure culture (Example 2); assay type: cell-based; conditions: S. typhimurium OCC 1870, nutrient agar, 0-10 mM tested
Excerpt: Example 1 was repeated, using Salmonella typhimurium OCC 1870 as the test organism. The results are shown in FIG. 3, which uses the same key as FIG. 2.

S. aureus OCC 102 = assay: growth on nutrient agar, mixed culture with E. faecalis (Example 7); assay type: cell-based, Staphylococcus aureus; conditions: S. aureus in mixed culture with E. faecalis
Excerpt: Example 6 was repeated, this time using a mixed culture of S. aureus OCC 102 and E. faecalis OCC 604, in the presence of AEP or alaphosphin. The empty columns represent growth of S. aureus, the shaded columns represent growth of E. faecalis. […] Thus alaphosphin could be used, when incorporated at an appropriate concentration in a medium, to inhibit growth of organisms such as Enterococci in samples whilst allowing Staphylococci to grow and be detected.

[2] = tested on: Enterobacter sakazakii 1888; assay: MIC in DMSal medium (Example 17); assay type: cell-based; conditions: Cronobacter sakazakii, 1888
B. subtilis OCC 214 = assay: growth on nutrient agar, mixed culture with K. pneumoniae (Example 8); assay type: cell-based, Bacillus subtilis
Excerpt: Example 6 was repeated, this time using a mixed culture of B. subtilis OCC 214 and K. pneumoniae CMCC 3077, in the presence of AEP or alaphosphin. The empty columns show the growth of B. subtilis, the shaded columns denote growth of K. pneumoniae.

Compound: C[C@H](N)C(=O)N[C@@H](C)P(=O)(O)O [alaphosphin, L-alanyl-L-1-aminoethylphosphonic acid]
- MIC (Enterococcus faecium 220): > 50 µg/mL
- MIC (E. coli 607): 0.1 µg/mL (≈ 0.51 µM)
- concentration at which growth is completely inhibited [1]: ≥ 5 mM
- concentration at which growth is inhibited (S. aureus OCC 102): ≥ 10 mM
- MIC [2]: 0.075 µg/mL (≈ 0.382 µM)
- sensitivity of growth (in words) (B. subtilis OCC 214): insensitive
